How the values were obtained:
[1] = biological target: T1, ABA-1A (rABA-1A, RP-ABA-1A; As-NPA-1A) (Ascaris suum, UniProt Q06811); test: fluorescence blue-shift of probe; assay type: binding; conditions: PBS pH 7.3, 25 °C, data not shown
[2] = biological target: T1, ABA-1A (rABA-1A, RP-ABA-1A; As-NPA-1A); test: fluorescence titration (probe enhancement, […] nm); assay type: binding

T1 sequence (Q06811 534-662): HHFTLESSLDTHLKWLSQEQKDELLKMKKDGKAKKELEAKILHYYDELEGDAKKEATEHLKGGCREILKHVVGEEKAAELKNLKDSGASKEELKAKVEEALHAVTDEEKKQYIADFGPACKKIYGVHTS

SMILES	fluorescence blue-shift of probe [1]	Kd [2]
CCCCCCC(NS(=O)(=O)c1cccc2c(N(C)C)cccc12)C(=O)O (racemic) [DACA, dansyl-α-aminooctanoic acid]	A similar blue-shift (data not shown) was observed using dansyl-DL-α-caprylic acid (DACA)	
CN(C)c1cccc2c(S(=O)(=O)NCCCCCCCCCCC(=O)O)cccc12 [DAUDA, 11-(((5-(dimethylamino)-1-napthalenyl)sulfonyl)amino)undecanoic acid]		110 nM

Reference: paper PMC3079579, “Solution Structure of a Repeated Unit of the ABA-1 Nematode Polyprotein Allergen of Ascaris Reveals a Novel Fold and Two Discrete Lipid-Binding Sites” (PLoS Neglected Tropical Diseases, 2011)
